# Assay results from PubChem BioAssay AID1963982 (Molecular Pharmacology Branch, DTP, NCI, 2024).
# pIC50: −log10 of the molar value.
# System: 313798-341-R-J2-PDC spheroids, viability
# Assay: Anticancer human tumor 313798-341-R-J2-PDC patient-derived cervical squamous cell carcinoma cell line growth inhibition [PI3K]
# Conditions: spheroids with HUVEC and MSC; for pIC50: curve of first compound; for viability, T/C: stronger effect = lower value
# Summary of the method: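 Tumor cells were combined with HUVEC and MSCs into spheroids, then dosed with PI3K-inhibitor combinations over half-log ranges capped near clinical Cmax or 10 microM.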
# [1] = second compound 0.00316 µM, first compound 0.0316 µM
# [2] = second compound 0.00316 µM, first compound 0.1 µM
# [3] = second compound 0.00316 µM, first compound 0.316 µM
# [4] = second compound 0.00316 µM, first compound 1 µM
# [5] = second compound 0.01 µM, first compound 0.0316 µM
# [6] = second compound 0.01 µM, first compound 0.1 µM
# [7] = second compound 0.01 µM, first compound 0.316 µM
# [8] = second compound 0.01 µM, first compound 1 µM
# [9] = second compound 0.0316 µM, first compound 0.0316 µM
# [10] = second compound 0.0316 µM, first compound 0.1 µM
# [11] = second compound 0.0316 µM, first compound 0.316 µM
# [12] = second compound 0.0316 µM, first compound 1 µM
# [13] = second compound 0.1 µM, first compound 0.0316 µM
# [14] = second compound 0.1 µM, first compound 0.1 µM
# [15] = second compound 0.1 µM, first compound 0.316 µM
# [16] = second compound 0.1 µM, first compound 1 µM
# [17] = second compound 0.316 µM, first compound 0.0316 µM
# [18] = second compound 0.316 µM, first compound 0.1 µM
# [19] = second compound 0.316 µM, first compound 0.316 µM
# [20] = second compound 0.316 µM, first compound 1 µM
# [21] = second compound 1 µM, first compound 0.0316 µM
# [22] = second compound 1 µM, first compound 0.1 µM
# [23] = second compound 1 µM, first compound 0.316 µM
# [24] = second compound 1 µM, first compound 1 µM
# [25] = second compound 0.00316 µM, first compound 3.16 µM
# [26] = second compound 0.00316 µM, first compound 10 µM
# [27] = second compound 0.01 µM, first compound 3.16 µM
# [28] = second compound 0.01 µM, first compound 10 µM
# [29] = second compound 0.0316 µM, first compound 3.16 µM
# [30] = second compound 0.0316 µM, first compound 10 µM
# [31] = second compound 0.1 µM, first compound 3.16 µM
# [32] = second compound 0.1 µM, first compound 10 µM
# [33] = second compound 0.316 µM, first compound 3.16 µM
# [34] = second compound 0.316 µM, first compound 10 µM
# [35] = second compound 1 µM, first compound 3.16 µM
# [36] = second compound 1 µM, first compound 10 µM
# 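Also: spheroids exposed to compounds for seven days.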
# 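For viability, T/C in this document: 100% = DMSO vehicle control viability.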
compound,measurement,setting,value
CCN1CCN(Cc2ccc(Nc3ncc(F)c(-c4cc(F)c5nc(C)n(C(C)C)c5c4)n3)nc2)CC1 + CC(Nc1ccc2c(c1)OCCn1cc(N3C(=O)OCC3C(F)F)nc1-2)C(N)=O,pIC50,second compound 0.00316 µM,< 6.00
same,pIC50,second compound 0.01 µM,< 6.00
same,pIC50,second compound 0.0316 µM,< 6.00
same,pIC50,second compound 0.1 µM,< 6.00
same,pIC50,second compound 0.316 µM,< 6.00
same,pIC50,second compound 1 µM,< 6.00
same,"viability, T/C","second compound 0.00316 µM, first compound 0.00316 µM",102%
same,"viability, T/C","second compound 0.00316 µM, first compound 0.01 µM",104%
same,"viability, T/C",[1],99.3%
same,"viability, T/C",[2],105%
same,"viability, T/C",[3],123%
same,"viability, T/C",[4],131%
same,"viability, T/C","second compound 0.01 µM, first compound 0.00316 µM",94.9%
same,"viability, T/C","second compound 0.01 µM, first compound 0.01 µM",102%
same,"viability, T/C",[5],96.8%
same,"viability, T/C",[6],125%
same,"viability, T/C",[7],138%
same,"viability, T/C",[8],120%
same,"viability, T/C","second compound 0.0316 µM, first compound 0.00316 µM",103%
same,"viability, T/C","second compound 0.0316 µM, first compound 0.01 µM",104%
same,"viability, T/C",[9],117%
same,"viability, T/C",[10],115%
same,"viability, T/C",[11],133%
same,"viability, T/C",[12],110%
same,"viability, T/C","second compound 0.1 µM, first compound 0.00316 µM",115%
same,"viability, T/C","second compound 0.1 µM, first compound 0.01 µM",103%
same,"viability, T/C",[13],90.2%
same,"viability, T/C",[14],107%
same,"viability, T/C",[15],101%
same,"viability, T/C",[16],86.1%
same,"viability, T/C","second compound 0.316 µM, first compound 0.00316 µM",86.1%
same,"viability, T/C","second compound 0.316 µM, first compound 0.01 µM",76.7%
same,"viability, T/C",[17],71.4%
same,"viability, T/C",[18],75.7%
same,"viability, T/C",[19],77.7%
same,"viability, T/C",[20],61.7%
same,"viability, T/C","second compound 1 µM, first compound 0.00316 µM",57.3%
same,"viability, T/C","second compound 1 µM, first compound 0.01 µM",48.3%
same,"viability, T/C",[21],52.3%
same,"viability, T/C",[22],56.8%
same,"viability, T/C",[23],52.7%
same,"viability, T/C",[24],58%
Cn1ncc(Cl)c1-c1cc(C(=O)NC(CN)Cc2cccc(F)c2)sc1Cl (stereo unspecified) + COc1c(OCCCN2CCOCC2)ccc2c3n(c(=NC(=O)c4cnc(N)nc4)nc12)CCN3,pIC50,second compound 0.00316 µM,6.03
same,pIC50,second compound 0.01 µM,6.17
same,pIC50,second compound 0.0316 µM,6.55
same,pIC50,second compound 0.1 µM,> 7.50
same,pIC50,second compound 0.316 µM,> 7.50
same,pIC50,second compound 1 µM,> 7.50
same,"viability, T/C",[1],107%
same,"viability, T/C",[2],84.7%
same,"viability, T/C",[3],71%
same,"viability, T/C",[4],46.7%
same,"viability, T/C",[25],36.6%
same,"viability, T/C",[26],35.5%
same,"viability, T/C",[5],100%
same,"viability, T/C",[6],99%
same,"viability, T/C",[7],69.2%
same,"viability, T/C",[8],41.6%
same,"viability, T/C",[27],30.8%
same,"viability, T/C",[28],36.8%
same,"viability, T/C",[9],99.3%
same,"viability, T/C",[10],61.9%
same,"viability, T/C",[11],53.7%
same,"viability, T/C",[12],36.4%
same,"viability, T/C",[29],25.2%
same,"viability, T/C",[30],25.5%
same,"viability, T/C",[13],49.4%
same,"viability, T/C",[14],43.5%
same,"viability, T/C",[15],41.4%
same,"viability, T/C",[16],27.1%
same,"viability, T/C",[31],20.2%
same,"viability, T/C",[32],15.4%
same,"viability, T/C",[17],17.5%
same,"viability, T/C",[18],18.1%
same,"viability, T/C",[19],15.2%
same,"viability, T/C",[20],16.6%
same,"viability, T/C",[33],13%
same,"viability, T/C",[34],5.97%
same,"viability, T/C",[21],12.7%
same,"viability, T/C",[22],12.4%
same,"viability, T/C",[23],13.6%
same,"viability, T/C",[24],12.3%
same,"viability, T/C",[35],9.74%
same,"viability, T/C",[36],3.3%
Cn1ncc(Cl)c1-c1cc(C(=O)NC(CN)Cc2cccc(F)c2)sc1Cl (stereo unspecified) + CC(Nc1ccc2c(c1)OCCn1cc(N3C(=O)OCC3C(F)F)nc1-2)C(N)=O,pIC50,second compound 0.00316 µM,6.01
same,pIC50,second compound 0.01 µM,5.98
same,pIC50,second compound 0.0316 µM,6.05
same,pIC50,second compound 0.1 µM,6.09
same,pIC50,second compound 0.316 µM,6.27
same,pIC50,second compound 1 µM,6.72
same,"viability, T/C",[1],117%
same,"viability, T/C",[2],91.3%
same,"viability, T/C",[3],94.2%
same,"viability, T/C",[4],48.3%
same,"viability, T/C",[25],34.4%
same,"viability, T/C",[26],38.6%
same,"viability, T/C",[5],97.3%
same,"viability, T/C",[6],102%
same,"viability, T/C",[7],75.5%
same,"viability, T/C",[8],52.4%
same,"viability, T/C",[27],38.1%
same,"viability, T/C",[28],35.6%
same,"viability, T/C",[9],102%
same,"viability, T/C",[10],107%
same,"viability, T/C",[11],84.5%
same,"viability, T/C",[12],46.8%
same,"viability, T/C",[29],35.1%
same,"viability, T/C",[30],34.9%
same,"viability, T/C",[13],114%
same,"viability, T/C",[14],95.7%
same,"viability, T/C",[15],67.6%
same,"viability, T/C",[16],47.4%
same,"viability, T/C",[31],35.2%
same,"viability, T/C",[32],36.8%
same,"viability, T/C",[17],74.6%
same,"viability, T/C",[18],69.6%
same,"viability, T/C",[19],57.9%
same,"viability, T/C",[20],41.4%
same,"viability, T/C",[33],32.8%
same,"viability, T/C",[34],35.7%
same,"viability, T/C",[21],59.8%
same,"viability, T/C",[22],56.1%
same,"viability, T/C",[23],44.7%
same,"viability, T/C",[24],37.2%
same,"viability, T/C",[35],28.7%
same,"viability, T/C",[36],32.2%
